Here are results for three substances from US20090233868A1, “Small antiviral peptides against hepatitis C virus” (priority 2005, published 2009).

Test [1] deals with cap-dependent translation. The experiment in a line: In vitro translation of capped Luciferase RNA in RRL. The format is biochemical, rabbit. As to conditions: 15, 30, 60 μM peptide; FIG. 5C.
Test [2] relates to HCV IRES mediated translation. Nature of the test: In vitro translation of uncapped HCV-IRES-Luc monocistronic RNA in rabbit reticulocyte lysate. As to conditions: RRL; for IC50: uncapped HCV IRES-Luc RNA, data not shown, read-out: IC50 for inhibition of HCV IRES mediated translation. It is filed as biochemical, hepatitis C virus.
Test [3] has as its system IRES mediated translation of hepatitis A virus. It is filed as biochemical.
Test [4] concerns HCV IRES mediated translation. Nature of the test: In vitro translation of capped HCV bicistronic RNA in RRL. The following applies: 15, 30, 60 μM peptide; FIG. 5D.
For test [5], the system named is Polio virus IRES function. It is filed as biochemical. The following applies: at higher concentration (15, 30, 60 μM tested); FIG. 5E.
The subject of the next test is HCV IRES RNA. The experiment in a line: UV-crosslinking assay with [32P] labeled HCV IRES RNA. The format is binding, hepatitis C virus. The following applies: 2 μM and 4 μM peptide; FIG. 6A.
A further test relates to Huh7 cells. Nature of the test: Internalization of fluorescein labeled hexa-arginine-tagged peptides. The following applies: fluorescein tagged peptide, 3 hours incubation; FIG. 6B. The format is cell-based.
The subject of test [6] is HCV IRES mediated translation. The experiment in a line: HCV bicistronic construct luciferase assay in Huh7 cells with arginine-tagged peptides. It is filed as cell-based, hepatitis C virus. As to conditions: 2 μM peptide, 4 hours or 6 hours.
In test [7] the test system is HCV monocistronic replicon. The experiment in a line: HCV negative strand real time PCR in Huh7 cells harboring HCV monocistronic replicon. It is filed as cell-based, hepatitis C virus. (In general: Quantitative PCR measures a nucleic acid by following its amplification.)

Where no end group is shown, it is not given here.

By IC50 is commonly meant the concentration needed to halve the response being measured. As for KYKETDL [LaR2C-N7], in test [1], the “Inhibition of capped-Luciferase RNA translation (cap-dependent)” value was “did not show significant inhibition”. The IC50 in test [2] was around 40 µM. The “Translation inhibitory activity on HCV IRES-Luc RNA” value in [2] (30 and 60 μM (FIG. 3C) or 15, 30 and 60 μM (FIG. 5A, 5B)) is “only slightly weaker than the 24-mer peptide”. For the same substance, in test [3], the “Inhibition of IRES mediated translation of hepatitis A virus” value is on record as “failed to inhibit”. For the same substance, the “Inhibition of HCV IRES (Fluc) vs cap dependent (Rluc) translation of bicistronic RNA” value in test [4] is given as “selective inhibition of HCV IRES mediated translation”. Also, in test [5], the “Inhibition of Polio virus IRES function” value is “significant inhibition”.

Turning to KYKETDLLILFKDDYFAKKNEERK [LaR2C], the concentration for half-maximal inhibition (IC50) in test [2] was found to be 30 µM.

Consider RRRRRRKYKETDL [Arg-LaR2C-N7], for which the “RNA binding activity of hexa-arginine tagged peptides (UV cross-linking)” value in the test with HCV IRES RNA is listed as “showed RNA binding activity”. For the same substance, the “Internalization into Huh7 cells (fluorescence microscope)” value with Huh7 cells was “internalized inside Huh7 cells”. In addition, in test [6], the “Inhibition of HCV IRES mediated translation over the control in Huh7 cells” value is “up to 70%”. Also, the “Decrease in levels of HCV negative strand RNAs compared to untreated cells” value in test [7] (4 μM peptide added at 0 and 12th hour, RNA at 24th hour) is around 50%. Further, the “Inhibitory activity on HCV negative strand synthesis” value in test [7] (10 μM peptide, data not shown) is recorded as “considerable increase in the inhibitory activity”.
